Laboratory results published in PubChem BioAssay (NCI).
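The compound was tested at five concentrations on cells cultured in 96-well plates, with a 48-hour exposure period. Here, GI50 denotes the concentration required for 50% inhibition of growth. TGI denotes the concentration required for complete inhibition of growth.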

Tests used:
Assay in all cases: NCI anticancer screen, dose series, 48 h
[1] = tested on: CCRF-CEM leukemia
[2] = tested on: EKVX NSCLC
[3] = tested on: OVCAR-5 ovarian
[4] = tested on: SF-539 CNS
[5] = tested on: SK-MEL-5 melanoma
[6] = tested on: SK-OV-3 ovarian
[7] = tested on: SNB-19 CNS
[8] = tested on: SW-620 colon
[9] = tested on: TK-10 renal
[10] = tested on: MOLT-4 leukemia

Compound | TGI [1] [µM] | TGI [2] [µM] | TGI [3] [µM] | TGI [4] [µM] | TGI [5] [µM] | TGI [6] [µM] | TGI [7] [µM] | TGI [8] [µM] | TGI [9] [µM] | TGI [10] [µM] | GI50 [1] [µM] | GI50 [10] [µM] | GI50 [4] [µM] | GI50 [5] [µM] | GI50 [6] [µM] | GI50 [7] [µM] | GI50 [8] [µM] | GI50 [9] [µM] | GI50 [2] [µM] | GI50 [3] [µM]
O=C1OC(c2ccc(Cl)cc2)=N/C1=C\c1ccccc1 | > 100 | > 100 | > 100 | > 100 | > 100 | > 100 | > 100 | > 100 | > 100 |  |  |  |  |  |  |  |  |  |  | 
COC(=O)/C(=N\NC(N)=O)C(C#N)c1ccccc1 (stereo not given) | > 100 | > 100 | > 100 | > 100 |  | > 100 | > 100 | > 100 | > 100 | > 100 |  |  |  |  |  |  |  |  |  | 
CC(=O)NCc1c(C(N)=O)ncn1Cc1ccccc1 | > 100 | > 100 |  | > 100 | > 100 | > 100 | > 100 | > 100 | > 100 | > 100 |  |  |  |  |  |  |  |  |  | 
COc1cc(/C=C2\NC(=O)C3Cc4c(OC)c(C)c(OC)c(OC)c4C2N3C)c(OC)c(C)c1OC (stereo not given) | > 100 | > 100 | > 100 | > 100 | > 100 | > 100 | > 100 |  | > 100 | > 100 |  |  |  |  |  |  |  |  |  | 
C1C[OH+]CCNCC[OH+]CC[OH+]CCN1.N.[Cl-].[Pt+4] | > 100 |  |  | > 100 | > 100 | 96 | > 100 | > 100 | > 100 | > 100 | 53.6 | 59.8 | > 100 | 35.5 | 25.1 | > 100 | 67.7 | 49.5 |  | 
O=C1c2cc3c(cc2-c2c1c1ccc(F)cc1c(=O)n2C[C@H](O)[C@H](O)[C@H](O)CO)OCO3 | 31.3 | 4.63 | 0.866 |  | 0.277 | 0.694 | > 100 | > 100 | 0.873 |  | 0.0479 |  |  | 0.141 | 0.186 | 0.0927 | 0.0967 | 0.248 | 0.357 | 0.253
CCCCCCCC(=O)OCC1OC(n2cc(F)c(=O)[nH]c2=O)C(N)C(O)C1O (stereo not given) | > 100 | > 100 | > 100 | > 100 | > 100 | > 100 | > 100 | > 100 |  | > 100 |  |  |  |  |  |  |  |  |  | 
C/C(CC(C)(C)N1CC1)=N\NC(=O)Nc1cccc2ccccc12 | 20.6 | 19.9 | 23 | 15.7 | 12.2 |  | 18.1 | 12.4 | 7.23 | 6.29 | 2.37 | 2.59 | 3.35 | 3.19 |  | 5.14 | 2.89 | 2.81 | 5.84 | 6.04
O=C(CC1(O)C(=O)Nc2ccc([N+](=O)[O-])cc21)c1ccncc1 (stereo not given) | > 100 | > 100 | > 100 | > 100 |  | > 100 | > 100 | 47.9 | > 100 | 70.1 |  |  |  |  |  |  |  |  |  | 
CCn1c(SCC(=O)Nc2cc(C(F)(F)F)ccc2Cl)nc2ccccc2c1=O |  |  | > 100 | > 100 | > 100 | 30.9 | > 100 | > 100 | 66.2 | > 100 |  | > 100 | 40.1 | 25.1 | 14.6 | 32.8 | 53.4 | 23.7 |  | 61.9
N#CC(C(=O)CCC(=O)Nc1cccc(C(F)(F)F)c1)c1ccccc1 (stereo not given) | > 100 | > 100 | > 100 | > 100 | > 100 |  | > 100 | > 100 | > 100 | > 100 |  |  |  |  |  |  |  |  |  | 
FC(F)(F)c1nc(SCc2ccc(Cl)cc2)n[nH]1 |  | > 100 | > 100 | > 100 | > 100 | > 100 | > 100 | > 100 | > 100 | > 100 |  |  |  |  |  |  |  |  |  | 
CCc1[nH]nc(C(N)=O)c1N=NN(C)C | > 100 | > 100 |  | > 100 | > 100 | > 100 | > 100 | > 100 | > 100 | 41.6 |  |  |  |  |  |  |  |  |  | 
CCN(CC)CCCNc1n[n+]([O-])c2ccccc2[n+]1[O-] | > 100 |  | 69.7 | 68.9 | 3.54 |  | > 100 | > 100 | 39 | 11.4 |  |  |  |  |  |  |  |  |  | 
